Laboratory results: PubChem BioAssay AID1963873 (Molecular Pharmacology Branch, DTP, NCI, 2024)

Tested on: 276233-004-R-J1-PDC KRAS spheroids with HUVEC/MSC, viability
Assay: Anticancer human tumor 276233-004-R-J1-PDC patient-derived colon adenocarcinoma cell line growth inhibition [KRAS2]
Conditions: for IC50: curve of first compound; for viability, T/C: stronger effect = lower value
Summary of the method: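 KRAS-mutant tumor cells were grown as spheroids with HUVEC endothelial cells and human MSCs as stroma. Targeted agents were tested alone and with KRAS pathway inhibitors. Doses started at or near clinical Cmax, or 10 microM, descending half-log.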

[1] = second compound 0.1 µM, first compound 0.0316 µM
[2] = second compound 0.1 µM, first compound 0.1 µM
[3] = second compound 0.1 µM, first compound 0.316 µM
[4] = second compound 0.1 µM, first compound 1 µM
[5] = second compound 0.1 µM, first compound 3.16 µM
[6] = second compound 0.1 µM, first compound 10 µM
[7] = second compound 0.316 µM, first compound 0.0316 µM
[8] = second compound 0.316 µM, first compound 0.1 µM
[9] = second compound 0.316 µM, first compound 0.316 µM
[10] = second compound 0.316 µM, first compound 1 µM
[11] = second compound 0.316 µM, first compound 3.16 µM
[12] = second compound 0.316 µM, first compound 10 µM
[13] = second compound 1 µM, first compound 0.0316 µM
[14] = second compound 1 µM, first compound 0.1 µM
[15] = second compound 1 µM, first compound 0.316 µM
[16] = second compound 1 µM, first compound 1 µM
[17] = second compound 1 µM, first compound 3.16 µM
[18] = second compound 1 µM, first compound 10 µM
[19] = second compound 3.16 µM, first compound 0.0316 µM
[20] = second compound 3.16 µM, first compound 0.1 µM
[21] = second compound 3.16 µM, first compound 0.316 µM
[22] = second compound 3.16 µM, first compound 1 µM
[23] = second compound 3.16 µM, first compound 3.16 µM
[24] = second compound 3.16 µM, first compound 10 µM
[25] = second compound 10 µM, first compound 0.0316 µM
[26] = second compound 10 µM, first compound 0.1 µM
[27] = second compound 10 µM, first compound 0.316 µM
[28] = second compound 10 µM, first compound 1 µM
[29] = second compound 10 µM, first compound 3.16 µM
[30] = second compound 10 µM, first compound 10 µM
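Further: cells exposed to agents for seven days before viability read.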
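Wherever viability, T/C is given: 100% = DMSO vehicle control wells and lower values mean fewer viable cells.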

What does the source list for `COC(=O)c1ccc2c(C(=Nc3ccc(N(C)C(=O)CN4CCN(C)CC4)cc3)c3ccccc3)c(O)[nH]c2c1` + COc1cc2nc(C)nc(NC(C)c3cc(N)cc(C(F)(F)F)c3)c2cc1OC1CCOC1?
IC50 (second compound 0.1 µM): > 10 µM; IC50 (second compound 0.316 µM): > 10 µM; IC50 (second compound 1 µM): > 10 µM; IC50 (second compound 3.16 µM): 2.75 µM; IC50 (second compound 10 µM): < 0.0316 µM; viability, T/C [1]: 96.3%; viability, T/C [2]: 77%; viability, T/C [3]: 80.4%; viability, T/C [4]: 83.1%; viability, T/C [5]: 70%; viability, T/C [6]: 83.7%; viability, T/C [7]: 94.1%; viability, T/C [8]: 71.5%; viability, T/C [9]: 74.2%; viability, T/C [10]: 65.3%; viability, T/C [11]: 70%; viability, T/C [12]: 74.2%; viability, T/C [13]: 78.6%; viability, T/C [14]: 80.9%; viability, T/C [15]: 70%; viability, T/C [16]: 70.2%; viability, T/C [17]: 62.9%; viability, T/C [18]: 61.6%; viability, T/C [19]: 72.1%; viability, T/C [20]: 66.6%; viability, T/C [21]: 58.7%; viability, T/C [22]: 51.5%; viability, T/C [23]: 54.7%; viability, T/C [24]: 6.87%; viability, T/C [25]: 24.1%; viability, T/C [26]: 25.9%; viability, T/C [27]: 30.9%; viability, T/C [28]: 20.9%; viability, T/C [29]: 13.8%; viability, T/C [30]: 1.87%

For `CC(C)NCC(C(=O)N1CCN(c2ncnc3c2C(C)CC3O)CC1)c1ccc(Cl)cc1` (stereo not given) + C=CC(=O)N1CCN(c2nc(=O)n(-c3c(C)ccnc3C(C)C)c3nc(-c4c(O)cccc4F)c(F)cc23)C(C)C1, which IC50 (second compound 0.1 µM) is on record?
The IC50 was over 10 µM.

What about the IC50 (second compound 0.316 µM) of the same compound?
The IC50 was over 10 µM.

What about the IC50 (second compound 1 µM) of the same compound?
Its IC50 is over 10 µM.

And the IC50 (second compound 3.16 µM)?
The IC50 was 7.17 µM.

What about the IC50 (second compound 10 µM) of the same compound?
The IC50 was over 10 µM.

And the viability, T/C [1]?
The viability, T/C was 109%.

And the viability, T/C [2]?
The viability, T/C was 128%.

What about the viability, T/C [3] of the same compound?
Its viability, T/C is 91.3%.

And the viability, T/C [4]?
Its viability, T/C is 74.2%.

What about the viability, T/C [5] of the same compound?
The viability, T/C was 73.6%.

And the viability, T/C [6]?
The viability, T/C was 70.5%.

What about the viability, T/C [7] of the same compound?
The viability, T/C was 89%.

What about the viability, T/C [8] of the same compound?
The viability, T/C was 71.7%.

And the viability, T/C [9]?
The viability, T/C was 101%.

What about the viability, T/C [10] of the same compound?
Its viability, T/C is 80%.

And the viability, T/C [11]?
The viability, T/C was 77.3%.

And the viability, T/C [12]?
Its viability, T/C is 63.1%.

And the viability, T/C [13]?
Its viability, T/C is 106%.

And the viability, T/C [14]?
Its viability, T/C is 102%.

And the viability, T/C [15]?
Its viability, T/C is 93.8%.

And the viability, T/C [16]?
Its viability, T/C is 76.9%.

And the viability, T/C [17]?
Its viability, T/C is 81.1%.

What about the viability, T/C [18] of the same compound?
Its viability, T/C is 60.7%.

And the viability, T/C [19]?
Its viability, T/C is 125%.

And the viability, T/C [20]?
Its viability, T/C is 103%.

And the viability, T/C [21]?
The viability, T/C was 67.4%.

And the viability, T/C [22]?
The viability, T/C was 66.5%.

What about the viability, T/C [23] of the same compound?
The viability, T/C was 59.3%.

And the viability, T/C [24]?
Its viability, T/C is 57.5%.

And the viability, T/C [25]?
The viability, T/C was 75%.

What about the viability, T/C [26] of the same compound?
The viability, T/C was 79.1%.

What about the viability, T/C [27] of the same compound?
Its viability, T/C is 58.9%.

And the viability, T/C [28]?
Its viability, T/C is 66.8%.

And the viability, T/C [29]?
The viability, T/C was 85.5%.

What about the viability, T/C [30] of the same compound?
Its viability, T/C is 64.4%.

What does the source list for `COc1cc2nccc(Oc3ccc(NC(=O)C4(C(=O)Nc5ccc(F)cc5)CC4)cc3)c2cc1OC` + C=CC(=O)N1CCN(c2nc(OCC3CCCN3C)nc3c2CCN(c2cccc4cccc(C)c24)C3)CC1CC#N?
IC50 (second compound 0.0316 µM): > 10 µM; IC50 (second compound 0.1 µM): > 10 µM; IC50 (second compound 0.316 µM): > 10 µM; IC50 (second compound 1 µM): > 10 µM; IC50 (second compound 3.16 µM): 1.68 µM; viability, T/C (second compound 0.0316 µM, first compound 0.0316 µM): 80%; viability, T/C (second compound 0.0316 µM, first compound 0.1 µM): 89.7%; viability, T/C (second compound 0.0316 µM, first compound 0.316 µM): 91%; viability, T/C (second compound 0.0316 µM, first compound 1 µM): 78.9%; viability, T/C (second compound 0.0316 µM, first compound 3.16 µM): 87.6%; viability, T/C (second compound 0.0316 µM, first compound 10 µM): 90.6%; viability, T/C [1]: 93.5%; viability, T/C [2]: 116%; viability, T/C [3]: 82.5%; viability, T/C [4]: 94.2%; viability, T/C [5]: 74.8%; viability, T/C [6]: 70.6%; viability, T/C [7]: 76.2%; viability, T/C [8]: 79.5%; viability, T/C [9]: 86%; viability, T/C [10]: 84.6%; viability, T/C [11]: 84.7%; viability, T/C [12]: 91.2%; viability, T/C [13]: 71.5%; viability, T/C [14]: 74.5%; viability, T/C [15]: 67.1%; viability, T/C [16]: 72%; viability, T/C [17]: 80.1%; viability, T/C [18]: 75.7%; viability, T/C [19]: 52.1%; viability, T/C [20]: 63.4%; viability, T/C [21]: 65%; viability, T/C [22]: 76.7%; viability, T/C [23]: 32.6%; viability, T/C [24]: 3.91%
